The experiment deals with recombinant EsigPBP3. Nature of the experiment: fluorescence competitive binding assay (FCBA) with 1-NPN probe. Also noted: species or system Endoclita signifer. Conditions: for pIC50: displacement of 1-NPN, 20 mM Tris-HCl pH 7.4, ligands 2-24 µM; for pIC50 / pKi: 2 µM EsigPBP3 and 2 µM 1-NPN; for pKi: from IC50 by Ki = [IC50]/(1 + [1-NPN]/K1-NPN). The method, then:
Fluorescence competition assays were conducted using 1-NPN ([…]) as a selective fluorescence probe to measure the affinity of ligands for binding to the recombinant EsigPBP3 [49]. […] The emission wavelength range was set from 380 nm to 520 nm. After the fluorescence intensity stabilized, scans were performed and the emission was recorded (both excitation and emission slit widths were set to 10 nm). A final concentration of 2 μM EsigPBP3 solution was prepared in 20 mM Tris-HCl buffer (pH 7.4), and the ligands were dissolved in chromatographically pure methanol as 1 mM stock solutions. […] The compound was added proportionally to a mixture with a final concentration of 2 µM EsigPBP3 protein and 2 µM 1-NPN. The ability of ligands to bind to the EsigPBP3 protein was monitored by the decrease in fluorescence intensity.

pIC50, pKd, pKi: −log10 of the molar value.

For orientation: pIC50 means the IC50 on a negative log10 scale, so that one unit is a factor of ten. Broadly, the pKi is the negative decadic logarithm of the Ki, by convention in mol/L. On to `Cc1cc(C)cc(C)c1` [1,3,5-trimethyl-benzen], for which the negative logarithm of the IC50 (pIC50) was less than 4.62. The negative-log Ki (pKi) (pH 7.4) was less than 4.79.
By pKd is commonly meant the Kd on a negative log10 scale, so that one unit is a factor of ten. Turning to `c1ccc(Nc2cccc3ccccc23)cc1` [1-NPN, reference compound], the pKd (binding curve and Scatchard plot, 2 µM EsigPBP3, 1-NPN 2-24 µM, pH 7.4, read-out: dissociation constant (Kd) of EsigPBP3 for the reporter ligand 1-NPN) was 5.47.
On to `CC(C)(O)c1ccccc1` [2-phenyl-2-propanol], for which the pIC50 was less than 4.62. The pKi (pH 7.4) is less than 4.79.
As for `CCc1ccc(C(C)=O)cc1` [4-ethylacetophenone], the pIC50 is 5.08. Also, for the setting “pH 7.4”, the negative logarithm of the Ki (pKi) is 5.26.
In the same order, the values of `CC1=CCC2CC1C2(C)C` (stereo not drawn) [(−)-α-pinene] are 5.11 and 5.28.
In the case of `C=C1CCC2CC1C2(C)C` (stereo not drawn) [(−)-β-pinene], the pIC50 is 5.32. Besides, the pKi (pH 7.4) was 5.49.
`CCc1ccccc1CC` [benzene, 1,2-diethyl-]: the negative logarithm of the IC50 (pIC50) is 5.14. Moreover, the pKi (pH 7.4) was 5.32.
In the same order, the values of `C=C1C2CCC(C2)C1(C)C` (stereo not shown) [camphene] are 5.01 and 5.18.
In the same order, the values of `CC12CCC(CC1)C(C)(C)O2` [eucalyptol] are less than 4.62 and less than 4.79.
The like results for `CC1=CC[C@H](C(C)C)C=C1` [α-phellandrene] were, in that order, 5.27 and 5.45.
